One block for each compound: values may come before it.
How the values were obtained:
[1] = molecular target: T1, Telomerase reverse transcriptase (Homo sapiens, UniProt O14746); experiment: Inhibition of human telomerase activity after 8 mins by SYBR Green staining-based TRAP assay
[2] = molecular target: Telomerase reverse transcriptase (Rattus norvegicus, UniProt Q673L6); experiment: Inhibition of rat telomerase by TRAP assay
[3] = molecular target: T1, Telomerase reverse transcriptase; experiment: Inhibition of human telomerase activity by TRAP assay
[4] = molecular target: T1, Telomerase reverse transcriptase; experiment: Inhibition of human telomerase activity in human Jurkat cells by TRAP assay; format: cell-based

T1 sequence (O14746 whole entry): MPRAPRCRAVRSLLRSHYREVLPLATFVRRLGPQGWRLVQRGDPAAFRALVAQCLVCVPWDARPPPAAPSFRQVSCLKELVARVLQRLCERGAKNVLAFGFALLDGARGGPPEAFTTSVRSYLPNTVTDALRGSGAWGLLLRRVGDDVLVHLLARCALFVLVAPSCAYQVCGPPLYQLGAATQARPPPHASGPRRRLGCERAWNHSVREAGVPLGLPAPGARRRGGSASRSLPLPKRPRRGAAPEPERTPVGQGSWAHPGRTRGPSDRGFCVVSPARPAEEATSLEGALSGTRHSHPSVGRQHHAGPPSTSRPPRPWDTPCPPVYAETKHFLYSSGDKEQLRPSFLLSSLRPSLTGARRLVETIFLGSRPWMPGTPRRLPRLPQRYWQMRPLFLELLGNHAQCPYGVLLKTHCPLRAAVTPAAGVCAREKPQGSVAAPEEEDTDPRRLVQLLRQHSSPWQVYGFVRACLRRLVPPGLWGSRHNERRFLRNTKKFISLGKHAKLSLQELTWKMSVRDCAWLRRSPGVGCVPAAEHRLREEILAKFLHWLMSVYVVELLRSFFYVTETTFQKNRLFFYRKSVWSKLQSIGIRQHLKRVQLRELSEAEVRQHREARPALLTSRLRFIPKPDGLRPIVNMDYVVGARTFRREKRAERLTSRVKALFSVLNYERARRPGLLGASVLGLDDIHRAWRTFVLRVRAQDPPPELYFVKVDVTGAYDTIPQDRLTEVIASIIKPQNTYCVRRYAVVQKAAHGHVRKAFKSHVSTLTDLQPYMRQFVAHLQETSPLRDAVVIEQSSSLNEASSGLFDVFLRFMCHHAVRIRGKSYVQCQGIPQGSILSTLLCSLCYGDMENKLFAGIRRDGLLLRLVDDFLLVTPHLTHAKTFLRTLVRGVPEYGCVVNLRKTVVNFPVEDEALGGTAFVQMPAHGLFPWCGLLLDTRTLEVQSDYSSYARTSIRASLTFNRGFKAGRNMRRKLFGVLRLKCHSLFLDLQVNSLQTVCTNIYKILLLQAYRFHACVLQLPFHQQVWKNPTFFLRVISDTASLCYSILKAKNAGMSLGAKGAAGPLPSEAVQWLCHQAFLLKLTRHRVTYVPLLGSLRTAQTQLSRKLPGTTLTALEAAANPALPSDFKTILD
Sequence of Telomerase reverse transcriptase (Rattus norvegicus, UniProt Q673L6) (Q673L6 whole entry): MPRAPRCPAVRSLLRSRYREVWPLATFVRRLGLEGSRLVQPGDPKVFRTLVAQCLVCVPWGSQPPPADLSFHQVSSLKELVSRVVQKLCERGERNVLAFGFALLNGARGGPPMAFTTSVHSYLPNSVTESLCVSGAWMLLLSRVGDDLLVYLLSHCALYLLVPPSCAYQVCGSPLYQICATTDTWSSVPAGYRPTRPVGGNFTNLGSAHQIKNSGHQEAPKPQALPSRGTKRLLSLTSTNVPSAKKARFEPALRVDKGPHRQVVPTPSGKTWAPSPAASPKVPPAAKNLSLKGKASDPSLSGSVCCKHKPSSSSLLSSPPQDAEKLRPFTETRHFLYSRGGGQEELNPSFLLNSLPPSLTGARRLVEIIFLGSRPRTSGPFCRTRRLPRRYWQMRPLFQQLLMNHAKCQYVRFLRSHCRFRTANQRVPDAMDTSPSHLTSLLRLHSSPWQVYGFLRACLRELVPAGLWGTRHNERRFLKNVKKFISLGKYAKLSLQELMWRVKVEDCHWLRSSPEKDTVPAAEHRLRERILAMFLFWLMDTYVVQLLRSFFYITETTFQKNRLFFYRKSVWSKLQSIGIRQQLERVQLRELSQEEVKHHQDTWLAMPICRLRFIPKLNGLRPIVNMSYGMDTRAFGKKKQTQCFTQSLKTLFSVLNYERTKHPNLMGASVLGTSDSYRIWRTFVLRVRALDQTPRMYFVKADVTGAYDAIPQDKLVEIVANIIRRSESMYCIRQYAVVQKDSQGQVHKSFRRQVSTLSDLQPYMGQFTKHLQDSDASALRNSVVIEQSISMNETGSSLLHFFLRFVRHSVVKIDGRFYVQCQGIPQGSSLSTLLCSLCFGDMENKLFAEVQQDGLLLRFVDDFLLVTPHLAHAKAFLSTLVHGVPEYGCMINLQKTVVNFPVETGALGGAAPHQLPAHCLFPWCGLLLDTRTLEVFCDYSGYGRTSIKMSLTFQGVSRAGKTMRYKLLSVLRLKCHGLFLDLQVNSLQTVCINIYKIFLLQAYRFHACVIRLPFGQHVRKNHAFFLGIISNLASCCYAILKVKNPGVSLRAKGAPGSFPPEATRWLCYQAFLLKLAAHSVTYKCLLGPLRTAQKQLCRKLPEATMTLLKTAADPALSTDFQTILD

IC50 [1]: 400 nM
SMILES: O=[N+]([O-])/C=C/c1cccc(Oc2cc(Cl)cc(Cl)c2)c1

IC50 [2]: 1000 nM
SMILES: O=c1ccsn1-c1cccc(C(F)(F)F)c1

IC50 [3]: 1000 nM
SMILES: N=C(N)Nc1nc(-c2cc(Cl)sc2Cl)cs1

SMILES: COc1ccc2c(c1)CC[C@@H]1[C@@H]2CC[C@]2(C)[C@@H](NCCCCCCN3C(=O)C=CC3=O)CC[C@@H]12
IC50 [4]: 200 nM
